Assay type in all cases: biochemical
Experiment [1] concerns the target PDE1C (Homo sapiens (Human), UniProt Q14123). Put plainly: PDE1 inhibition assay, PDE1C. To be noted: for IC50: 15 nM tritium labelled cAMP; for inhibition at 1 µM: read-out: PDE1C, % inhibition (at 1 μM). As for the experimental part: (§1) Reactions were initiated by addition of the cyclic nucleotide substrate, and reactions were allowed to proceed for 1 h at room temperature before being terminated through mixing with 20 μL (0.2 mg) yttrium silicate SPA beads (PerkinElmer). The beads were allowed to settle for 1 h in the dark before the plates were counted in a Wallac 1450 Microbeta counter.

The target of experiment [2] is PDE1A (Homo sapiens (Human), UniProt P54750). Description: PDE1 inhibition assay, PDE1A. To be noted: for IC50: 15 nM tritium labelled cAMP. As for the experimental part:
Reactions were initiated by addition of the cyclic nucleotide substrate, and reactions were allowed to proceed for 1 h at room temperature before being terminated through mixing with 20 μL (0.2 mg) yttrium silicate SPA beads (PerkinElmer).

Experiment [3] concerns the target PDE1B (Homo sapiens (Human), UniProt Q01064). Description: PDE1 inhibition assay, PDE1B. As to conditions: for IC50: 15 nM tritium labelled cAMP. As for the experimental part: as §1
The target in experiment [4] is PDE9 (Homo sapiens (Human), UniProt O76083). Put plainly: PDE9 inhibition assay. Here is the method: A PDE9 assay may for example, be performed as follows: The assay is performed in 60 μL samples containing a fixed amount of the relevant PDE enzyme (sufficient to convert 20-25% of the cyclic nucleotide substrate), a buffer (50 mM HEPES7.6; 10 mM MgCl2; 0.02% Tween20), 0.1 mg/ml BSA, 225 pCi of ^3H-labelled cyclic nucleotide substrate, tritium labeled cAMP to a final concentration of 5 nM and varying amounts of inhibitors. Reactions are initiated by addition of the cyclic nucleotide substrate, and reactions are allowed to proceed for one hr at room temperature before being terminated through mixing with 15 μL 8 mg/mL yttrium silicate SPA beads (Amersham). The beads are allowed to settle for one hr in the dark before the plates are counted in a Wallac 1450 Microbeta counter.
In the context of the present invention the assay was performed in 60 μL assay buffer (50 mM HEPES pH 7.6; 10 mM MgCl2; 0.02% Tween20) containing enough PDE9 to convert 20-25% of 10 nM ^3H-cAMP and varying amounts of inhibitors. Following a 1 hr incubation the reactions were terminated by addition of 15 μL 8 mg/mL yttrium silicate SPA beads (Amersham). The beads were allowed to settle for one hr in the dark before the plates were counted in a Wallac 1450 Microbeta counter.

Sequence of PDE1A (P54750 whole entry): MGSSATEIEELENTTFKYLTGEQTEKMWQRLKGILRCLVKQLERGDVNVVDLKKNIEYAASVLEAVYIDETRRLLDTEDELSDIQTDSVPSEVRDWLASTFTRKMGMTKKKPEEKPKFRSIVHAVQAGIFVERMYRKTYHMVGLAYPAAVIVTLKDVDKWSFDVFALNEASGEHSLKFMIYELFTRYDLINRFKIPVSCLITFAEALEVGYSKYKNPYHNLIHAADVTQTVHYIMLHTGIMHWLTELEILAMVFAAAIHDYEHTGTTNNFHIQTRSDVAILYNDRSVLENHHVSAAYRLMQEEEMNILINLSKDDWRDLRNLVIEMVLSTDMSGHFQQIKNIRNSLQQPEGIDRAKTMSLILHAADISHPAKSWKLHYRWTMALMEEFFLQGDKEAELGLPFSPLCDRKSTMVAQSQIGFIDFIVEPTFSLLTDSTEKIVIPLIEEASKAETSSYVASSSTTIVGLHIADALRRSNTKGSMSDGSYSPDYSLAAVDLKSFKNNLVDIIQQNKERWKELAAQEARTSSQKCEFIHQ
Sequence of PDE9 (O76083 whole entry): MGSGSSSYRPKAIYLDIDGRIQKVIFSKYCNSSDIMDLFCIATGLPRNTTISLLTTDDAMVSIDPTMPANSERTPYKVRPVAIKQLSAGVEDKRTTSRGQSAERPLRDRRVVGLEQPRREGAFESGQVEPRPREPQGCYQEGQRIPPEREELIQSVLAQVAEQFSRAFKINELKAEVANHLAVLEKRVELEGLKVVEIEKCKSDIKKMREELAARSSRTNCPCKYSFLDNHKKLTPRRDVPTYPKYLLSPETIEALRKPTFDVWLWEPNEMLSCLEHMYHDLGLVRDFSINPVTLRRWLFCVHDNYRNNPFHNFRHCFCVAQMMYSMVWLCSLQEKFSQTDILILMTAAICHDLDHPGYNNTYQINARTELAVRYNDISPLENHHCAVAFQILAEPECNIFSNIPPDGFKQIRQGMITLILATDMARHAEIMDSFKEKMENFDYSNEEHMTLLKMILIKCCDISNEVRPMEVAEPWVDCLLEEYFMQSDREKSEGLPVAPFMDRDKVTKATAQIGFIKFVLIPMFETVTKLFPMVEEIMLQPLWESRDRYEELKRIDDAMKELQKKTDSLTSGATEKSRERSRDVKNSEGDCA
Sequence of PDE1B (Q01064 whole entry): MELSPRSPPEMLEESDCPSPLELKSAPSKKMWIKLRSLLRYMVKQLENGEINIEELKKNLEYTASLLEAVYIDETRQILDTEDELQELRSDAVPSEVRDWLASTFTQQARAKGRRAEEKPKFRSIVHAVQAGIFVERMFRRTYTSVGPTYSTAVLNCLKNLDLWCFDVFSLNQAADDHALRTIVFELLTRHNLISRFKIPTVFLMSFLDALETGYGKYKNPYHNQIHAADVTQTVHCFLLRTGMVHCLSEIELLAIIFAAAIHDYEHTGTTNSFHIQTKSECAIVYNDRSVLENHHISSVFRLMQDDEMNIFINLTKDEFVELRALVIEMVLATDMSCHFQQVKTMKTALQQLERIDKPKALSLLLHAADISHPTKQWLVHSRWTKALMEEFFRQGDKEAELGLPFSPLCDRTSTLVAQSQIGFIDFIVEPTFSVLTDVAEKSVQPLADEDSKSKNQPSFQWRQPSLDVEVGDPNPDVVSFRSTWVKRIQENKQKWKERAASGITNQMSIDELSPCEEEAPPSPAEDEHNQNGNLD
Sequence of PDE1C (Q14123 whole entry): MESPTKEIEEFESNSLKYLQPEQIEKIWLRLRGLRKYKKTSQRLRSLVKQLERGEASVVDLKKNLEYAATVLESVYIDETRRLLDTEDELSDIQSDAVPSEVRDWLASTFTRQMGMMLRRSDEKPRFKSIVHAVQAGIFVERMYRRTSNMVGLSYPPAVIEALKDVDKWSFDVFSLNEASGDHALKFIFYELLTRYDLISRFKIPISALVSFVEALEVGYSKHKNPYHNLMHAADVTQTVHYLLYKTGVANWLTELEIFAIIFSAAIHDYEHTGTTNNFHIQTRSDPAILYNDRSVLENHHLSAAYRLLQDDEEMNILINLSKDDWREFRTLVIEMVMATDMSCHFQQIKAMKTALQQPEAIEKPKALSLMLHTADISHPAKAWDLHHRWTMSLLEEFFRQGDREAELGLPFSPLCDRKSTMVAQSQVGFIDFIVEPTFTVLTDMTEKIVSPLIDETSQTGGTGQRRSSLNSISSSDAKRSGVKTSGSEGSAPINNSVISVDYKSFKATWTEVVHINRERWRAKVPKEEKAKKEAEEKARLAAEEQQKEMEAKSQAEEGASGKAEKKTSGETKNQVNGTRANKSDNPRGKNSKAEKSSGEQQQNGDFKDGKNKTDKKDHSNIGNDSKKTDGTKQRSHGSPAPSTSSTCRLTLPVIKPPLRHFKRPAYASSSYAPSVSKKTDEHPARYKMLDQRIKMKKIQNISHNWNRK

Turning to `COc1ccc(Cn2c(C)cn3c(C4(C)CCN(C)CC4)ncc3c2=O)cc1` [Example 73, 3-(1,4-dimethylpiperidin-4-yl)-7-(4-methoxybenzyl)-6-methylimidazo[1,5-a]pyrazin-8(7H)-one], the IC50 (usually the point on the concentration scale where inhibition reaches its midpoint) was 2450 nM in experiment [1], 1920 nM in experiment [2] and 1450 nM in experiment [3].

Regarding `COc1ccc(Cn2c(C)cn3c(C4COC(C)C4)ncc3c2=O)cc1` (stereo not drawn) [Example 89, 7-(4-methoxybenzyl)-6-methyl-3-(5-methyltetrahydrofuran-3-yl)imidazo[1,5-a]pyrazin-8(7H)-one], the IC50 in experiment [1] came to 303 nM; in experiment [3] it was 128 nM. Besides, the inhibition (commonly the relative decrease from the control value, in per cent) at 10 µM in experiment [4] is 1%; in experiment [2] (read-out: PDE1A, % inhibition (at 10 μM)), 65%.

Regarding `CO[C@H]1CC[C@@H](Cn2c(C)cn3c(C4CCOCC4)ncc3c2=O)CC1` [Example 67, 7-(((cis)-4-methoxycyclohexyl)methyl)-6-methyl-3-(tetrahydro-2H-pyran-4-yl)imidazo[1,5-a]pyrazin-8(7H)-one], the IC50 in experiment [1] stood at 307 nM; in experiment [2], 234 nM; in experiment [3], 87 nM. Further, the inhibition at 10 µM in experiment [4] turned out to be 10%.

For the molecule `Cc1cn2c(C3CCOCC3)ncc2c(=O)n1Cc1ccc(N)cc1` [Example 52, 7-(4-aminobenzyl)-6-methyl-3-(tetrahydro-2H-pyran-4-yl)imidazo[1,5-a]pyrazin-8(7H)-one], the inhibition at 1 µM in experiment [1] was determined as 10%; in experiment [2] (read-out: PDE1A, % inhibition (at 1 μM)), 0%. Further, in experiment [4], the inhibition at 10 µM was -3%. Besides, the IC50 in experiment [3] is 388 nM.

As for `Cc1ccc(Cn2c(C)cn3c(C4CCOCC4)ncc3c2=O)cc1` [Example 22, 6-Methyl-7-(4-methylbenzyl)-3-(tetrahydro-2H-pyran-4-yl)imidazo[1,5-a]pyrazin-8(7H)-one], the IC50 in experiment [1] was 67 nM; in experiment [2], 75 nM; in experiment [3] it was 28 nM. The inhibition at 10 µM in experiment [4] stood at 50%.

For `COc1cc(Cn2c(C)cn3c(C4CCOCC4)ncc3c2=O)ccc1Cl` [Example 48, 7-(4-chloro-3-methoxybenzyl)-6-methyl-3-(tetrahydro-2H-pyran-4-yl)imidazo[1,5-a]pyrazin-8(7H)-one], the inhibition at 1 µM in experiment [1] stood at 34%; in experiment [3] (read-out: PDE1B, % inhibition (at 1 μM)), 54%. Moreover, the inhibition at 10 µM in experiment [4] turned out to be 10%.

For `Cc1cc(Cn2c(C)cn3c(C4CCOCC4)ncc3c2=O)on1` [Example 83, 6-methyl-7-((3-methylisoxazol-5-yl)methyl)-3-(tetrahydro-2H-pyran-4-yl)imidazo[1,5-a]pyrazin-8(7H)-one], the IC50 is 1610 nM in experiment [1], 4440 nM in experiment [2] and 2290 nM in experiment [3]. The inhibition at 10 µM in experiment [4] was -4%.

Turning to `Cc1cccc(Cn2c(C)cn3c(C4CCOCC4)ncc3c2=O)c1` [Example 25, 6-Methyl-7-(3-methylbenzyl)-3-(tetrahydro-2H-pyran-4-yl)imidazo[1,5-a]pyrazin-8(7H)-one], the IC50 came to 9 nM in experiment [1], 63 nM in experiment [2] and 57 nM in experiment [3]. For the same molecule, the inhibition at 10 µM in experiment [4] was -42%.

Regarding `COc1ccc(Cn2c(C)cn3c(C4CCOCC4)ncc3c2=O)cc1Cl` [Example 51, 7-(3-chloro-4-methoxybenzyl)-6-methyl-3-(tetrahydro-2H-pyran-4-yl)imidazo[1,5-a]pyrazin-8(7H)-one], the IC50 in experiment [1] is 46 nM; in experiment [2] it was 199 nM; in experiment [3], 36 nM. In addition, the inhibition at 10 µM in experiment [4] came out at 1%.

For `Cc1cn2c([C@H]3CCCOC3)ncc2c(=O)n1Cc1cccc(F)c1` (single isomer, unassigned; isomer 2) [100, isomer 2], the IC50 in experiment [1] was found to be 33 nM; in experiment [2] it was 333 nM; in experiment [3] it was 93 nM. The “% inhibition of PDE9 at 10 microM” value in experiment [4] is listed as −21%.

For the molecule `O=c1c2cnc(C3CCOCC3)n2ccn1CC1CCCC1` [Example 10, 7-(Cyclopentylmethyl)-3-(tetrahydro-2H-pyran-4-yl)imidazo[1,5-a]pyrazin-8(7H)-one], half-maximal inhibition in experiment [1] (IC50) was put at 79 nM. The inhibition at 10 µM in experiment [4] was 8%. Besides, the inhibition at 2 µM turned out to be 73% in experiment [2] (read-out: PDE1A, % inhibition (at 2 μM)) and 88% in experiment [3] (read-out: PDE1B, % inhibition (at 2 μM)).

As to `Cc1cn2c(N3CCC4OCCC43)ncc2c(=O)n1Cc1cccc(F)c1` (single isomer, unassigned; isomer 2) [99, isomer 2], the IC50 in experiment [1] came out at 119 nM; in experiment [3], 760 nM. The “% inhibition of PDE9 at 10 microM” value in experiment [4] is 6%. Besides, the “PDE1A, % inhibition (at 10 μM)” value in experiment [2] (at 10 μM) was 47%.

`Cc1cn2c(C3C[C@H]3F)ncc2c(=O)n1Cc1cccc(F)c1` (single isomer, unassigned; isomer 1) [38, isomer 1]: the “% inhibition of PDE9 at 10 microM” value in experiment [4] is on record as −1%.

Consider `COc1ccc(Cn2c(C)cn3c([C@@H]4CCO[C@H]4C)ncc3c2=O)cc1` (single isomer, unassigned; isomer 2) [55, isomer 2], for which, in experiment [4], the “% inhibition of PDE9 at 10 microM” value was −13%. In experiment [3], the midpoint of inhibition, the IC50, lay at 64 nM.

On to `Cc1cn2c([C@@H]3CCO[C@H]3C)ncc2c(=O)n1Cc1cccc(F)c1` (single isomer, unassigned; isomer 3) [36, isomer 3], for which the “% inhibition of PDE9 at 10 microM” value in experiment [4] is −10%. Besides, the IC50 turned out to be 77 nM in experiment [2] and 21 nM in experiment [3].

In experiment [1], `Cc1cn2c(C3C[C@H]3F)ncc2c(=O)n1Cc1cccc(F)c1` (single isomer, unassigned; isomer 2) [38, isomer 2] showed an IC50 of 153 nM. Besides, the “% inhibition of PDE9 at 10 microM” value in experiment [4] is given as 2%.

In the case of `Cc1cn2c([C@@H]3CCO[C@@H]3C)ncc2c(=O)n1Cc1cccc(F)c1` (single isomer, unassigned; isomer 1) [36, isomer 1], in experiment [4], the “% inhibition of PDE9 at 10 microM” value was 3%. In addition, the IC50 in experiment [2] was determined as 152 nM; in experiment [3], 59 nM.

`COc1ccc(Cn2c(C)cn3c([C@@H]4CCO[C@H]4C)ncc3c2=O)cc1` (single isomer, unassigned; isomer 3) [55, isomer 3] yielded an IC50 in experiment [3] of 3 nM.

Regarding `COc1ccc(Cn2c(C)cn3c(N4CCOC[C@@H]4C)ncc3c2=O)cc1` [Example 96, (S)-7-(4-methoxybenzyl)-6-methyl-3-(3-methylmorpholino)imidazo[1,5-a]pyrazin-8(7H)-one], the IC50 in experiment [1] worked out at 51 nM; in experiment [2], 48 nM; in experiment [3], 38 nM.

As for `COc1ccc(Cn2c(C)cn3c([C@@H]4CCO[C@@H]4C)ncc3c2=O)cc1` (single isomer, unassigned; isomer 1) [55, isomer 1], in experiment [4], the “% inhibition of PDE9 at 10 microM” value is recorded as 18%. It took 10 nM to reach half-maximal inhibition in experiment [3] (IC50).

With `COc1ccc(Cn2c(C)cn3c(C(C)(C)F)ncc3c2=O)cc1` [Example 87, 3-(2-fluoropropan-2-yl)-7-(4-methoxybenzyl)-6-methylimidazo[1,5-a]pyrazin-8(7H)-one], the inhibition at 10 µM in experiment [4] was found to be 10%.

Consider `Cc1cn2c([C@H]3CCO[C@@H]3C)ncc2c(=O)n1Cc1cccc(F)c1` (single isomer, unassigned; isomer 2) [36, isomer 2], for which, in experiment [4], the “% inhibition of PDE9 at 10 microM” value is recorded as 11%. In addition, the IC50 in experiment [2] was 282 nM; in experiment [3], 107 nM.

On to `COc1ccc(Cn2c(C)cn3c(NC4CCOC4)ncc3c2=O)cc1` (stereo not drawn) [Example 94, 7-(4-methoxybenzyl)-6-methyl-3-((tetrahydrofuran-3-yl)amino)imidazo[1,5-a]pyrazin-8(7H)-one], for which the inhibition at 10 µM in experiment [4] is -5%. In experiment [2], this molecule returned an IC50 of 2520 nM.

For the molecule `Cc1cn2c(C3C[C@@H]3F)ncc2c(=O)n1Cc1cccc(F)c1` (single isomer, unassigned; isomer 2) [37, isomer 2], the IC50 in experiment [1] is 55 nM. Also, the “% inhibition of PDE9 at 10 microM” value in experiment [4] is 13%.

As for `COc1ccc(Cn2c(C)cn3c([C@H]4CCO[C@H]4C)ncc3c2=O)cc1` (single isomer, unassigned; isomer 4) [55, isomer 4], the “% inhibition of PDE9 at 10 microM” value in experiment [4] came to 1%. The molecule further came in with an IC50 in experiment [3] of 208 nM.

With `COc1ccc(Cn2c(C)cn3c(C(C)C)ncc3c2=O)cc1` [Example 77, 3-isopropyl-7-(4-methoxybenzyl)-6-methylimidazo[1,5-a]pyrazin-8(7H)-one], the IC50 was 20 nM in experiment [1], 13 nM in experiment [2] and 7 nM in experiment [3].

`Cc1cn2c(C3C[C@@H]3F)ncc2c(=O)n1Cc1cccc(F)c1` (single isomer, unassigned; isomer 1) [37, isomer 1] yielded an IC50 in experiment [1] of 345 nM. The “% inhibition of PDE9 at 10 microM” value in experiment [4] was −2%.

The values above are taken from patent US10858362B2, “Imidazopyrazinones as PDE1 inhibitors” (H. Lundbeck A/S, priority 2015, dated 2020).
